Measurements reported in patent US20020137929A1, “1 - (3-heterocyclylphenyl) isothiourea, -isourea, -guanidine and -amidine herbicidal agents” (Intellectual Property Department, BASF Aktiengesellschaft, priority 1998, published 2002).

Columns and labels:
[1] = system: CHEAL (Lambsquarters, Common); assay: Postemergence herbicidal evaluation; assay type: in vivo, Chenopodium album; details: postemergence
In short: (§1)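 Rate range approx. 0.0156–0.500 kg/ha. Foliar application at 40 psi to ~2-week seedlings; surfactant 0.5% TWEEN 20 in 50/50 acetone/water. Evaluation 4–5 wk post-treatment by 0–9 visual injury score, means of replicate tests.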

CYPSE (Flatsedge) [2] = assay: Postemergence weed control under flooded paddy conditions; assay type: in vivo, Cyperus serotinus; details: postemergence weeds, 3-4 weeks after treatment
In short: (§2)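 Flood-water application, about 0.0313–0.500 kg/ha a.i. in aqueous/acetone 50/50 v/v; water depth 1.5–3 cm throughout. Weeds 3–5 cm, rice 1.5–2.5 leaf. Greenhouse; 0–9 visual rating vs control at 3–4 wk.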

ORYSAT (Rice, Tebonnet) [3] = assay: Postemergence herbicidal evaluation; assay type: in vivo, Oryza sativa, (L.) Tebonnet; details: postemergence
In short: as §1

ORYSAT (Rice, Tebonnet) [4] = assay: Preemergence herbicidal evaluation; assay type: in vivo, Oryza sativa, (L.) Tebonnet; details: rated 4-5 weeks after treatment
In short: (§3)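 Visual 0-9 rating vs control (stand, vigor, malformation, size, chlorosis, overall appearance), scored 4-5 wk after spraying. Seeded soil cups were treated preemergence with compound in aqueous acetone, ~0.0156-0.500 kg/ha equivalent.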

CYPSE (Flatsedge) [5] = assay: Preemergence weed control under flooded paddy conditions; assay type: in vivo, Cyperus serotinus; details: rated 3-4 weeks after treatment
In short: (§4)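 Ratings on a 0-9 visual scale cover stand, vigor, malformation, size, chlorosis and overall appearance relative to a control, taken three to four weeks post-treatment. Application was into flood water over freshly sown silt loam at roughly 0.0313 to 0.500 kg/ha.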

MOOVA (Monochoria) = assay: as above; assay type: in vivo, Monochoria vaginalis; details: rated 3-4 weeks after treatment
In short: as §4

AMBEL (Ragweed, Common) = assay: Preemergence herbicidal evaluation; assay type: in vivo, Ambrosia artemisifolia; details: rated 4-5 weeks after treatment
In short: as §3

[6] = system: GLXMAW (Soybean, Williams); assay: Preemergence herbicidal evaluation; assay type: in vivo, Glycine max, (L.) Merr. cv Williams; details: rated 4-5 weeks after treatment
In short: as §3

SETVI (Foxtail, Green) = assay: Preemergence herbicidal evaluation; assay type: in vivo, Setaria viridis; details: rated 4-5 weeks after treatment
In short: as §3

CYPIR (Rice Flatsedge) = assay: Postemergence weed control under flooded paddy conditions; assay type: in vivo, Cyperus iria; details: postemergence weeds, 3-4 weeks after treatment
In short: as §2

GALAP (Galium) = assay: Postemergence herbicidal evaluation; assay type: in vivo, Galium aparine; details: postemergence
In short: as §1

ZEAMX (Corn, Field) = assay: Postemergence herbicidal evaluation; assay type: in vivo, Zea mays; details: postemergence
In short: as §1

CASOB (Sicklepod) = assay: Postemergence herbicidal evaluation; assay type: in vivo, Cassia obtusifolia; details: postemergence
In short: as §1

[7] = system: SAGPY (Arrowhead (Pygmaea)); assay: Postemergence weed control under flooded paddy conditions; assay type: in vivo, Sagittaria pygmaea; details: postemergence weeds, 3-4 weeks after treatment
In short: as §2

CN1C(=O)CS/C1=N/c1cc(-n2c(=O)cc(C(F)(F)F)n(C)c2=O)c(F)cc1Cl [Compound 7]
5.0: CHEAL herbicidal rating ([1]; rate 0.0313 kg/ha) | ORYSAT preemergence herbicidal rating (ORYSAT (Rice, Tebonnet) [4]; rate 0.0157 kg/ha) | AMBEL preemergence herbicidal rating (AMBEL (Ragweed, Common); rate 0.0157 kg/ha) | GLXMAW preemergence herbicidal rating ([6]; rate 0.0157 kg/ha) | GALAP herbicidal rating (GALAP (Galium); rate 0.0625 kg/ha) | ZEAMX herbicidal rating (ZEAMX (Corn, Field); rate 0.0157 kg/ha) | CASOB herbicidal rating (CASOB (Sicklepod); rate 0.0313 kg/ha) | CASOB herbicidal rating (CASOB (Sicklepod); rate 0.0625 kg/ha)
7.0: Herbicidal rating CYPSE (CYPSE (Flatsedge) [2]; rate 0.0625 kg/ha) | Herbicidal rating CYPSE (CYPSE (Flatsedge) [5]; 0.0625 kg/ha) | Herbicidal rating CYPSE (CYPSE (Flatsedge) [5]; 0.1250 kg/ha) | ZEAMX herbicidal rating (ZEAMX (Corn, Field); rate 0.0625 kg/ha) | ZEAMX herbicidal rating (ZEAMX (Corn, Field); rate 0.1250 kg/ha) | CASOB herbicidal rating (CASOB (Sicklepod); rate 0.1250 kg/ha)
7.5: Herbicidal rating CYPSE (CYPSE (Flatsedge) [2]; rate 0.1250 kg/ha) | ORYSAT preemergence herbicidal rating (ORYSAT (Rice, Tebonnet) [4]; rate 0.0313 kg/ha) | GLXMAW preemergence herbicidal rating ([6]; rate 0.0625 kg/ha) | Herbicidal rating SAGPY ([7]; rate 0.1250 kg/ha)
0.0: CHEAL herbicidal rating ([1]; rate 0.0157 kg/ha)
5.5: Herbicidal rating SAGPY ([7]; rate 0.0625 kg/ha)
6.0: CHEAL herbicidal rating ([1]; rate 0.0625 kg/ha) | ZEAMX herbicidal rating (ZEAMX (Corn, Field); rate 0.0313 kg/ha)
3.0: Herbicidal rating CYPSE (CYPSE (Flatsedge) [2]; rate 0.0313 kg/ha) | GALAP herbicidal rating (GALAP (Galium); rate 0.0157 kg/ha) | Herbicidal rating SAGPY ([7]; rate 0.0313 kg/ha)
8.0: Herbicidal rating CYPSE (CYPSE (Flatsedge) [2]; rate 0.2500 kg/ha) | ORYSAT preemergence herbicidal rating (ORYSAT (Rice, Tebonnet) [4]; rate 0.0625 kg/ha) | GLXMAW preemergence herbicidal rating ([6]; rate 0.1250 kg/ha)
9.0: CHEAL herbicidal rating ([1]; rate 0.1250 kg/ha) | ORYSAT preemergence herbicidal rating (ORYSAT (Rice, Tebonnet) [4]; rate 0.2500 kg/ha) | Herbicidal rating CYPSE (CYPSE (Flatsedge) [5]; 0.2500 kg/ha) | Herbicidal rating MOOVA (MOOVA (Monochoria); 0.0313 kg/ha) | Herbicidal rating MOOVA (MOOVA (Monochoria); 0.0625 kg/ha) | Herbicidal rating MOOVA (MOOVA (Monochoria); 0.1250 kg/ha) | Herbicidal rating MOOVA (MOOVA (Monochoria); 0.2500 kg/ha) | AMBEL preemergence herbicidal rating (AMBEL (Ragweed, Common); rate 0.0625 kg/ha) | AMBEL preemergence herbicidal rating (AMBEL (Ragweed, Common); rate 0.1250 kg/ha) | AMBEL preemergence herbicidal rating (AMBEL (Ragweed, Common); rate 0.2500 kg/ha) | SETVI preemergence herbicidal rating (SETVI (Foxtail, Green); rate 0.0157 kg/ha) | SETVI preemergence herbicidal rating (SETVI (Foxtail, Green); rate 0.0313 kg/ha) | SETVI preemergence herbicidal rating (SETVI (Foxtail, Green); rate 0.0625 kg/ha) | SETVI preemergence herbicidal rating (SETVI (Foxtail, Green); rate 0.1250 kg/ha) | SETVI preemergence herbicidal rating (SETVI (Foxtail, Green); rate 0.2500 kg/ha) | Herbicidal rating CYPIR (CYPIR (Rice Flatsedge); rate 0.0625 kg/ha) | Herbicidal rating CYPIR (CYPIR (Rice Flatsedge); rate 0.1250 kg/ha) | Herbicidal rating CYPIR (CYPIR (Rice Flatsedge); rate 0.2500 kg/ha) | GALAP herbicidal rating (GALAP (Galium); rate 0.1250 kg/ha)
4.0: ORYSAT herbicidal rating (ORYSAT (Rice, Tebonnet) [3]; rate 0.0313 kg/ha) | Herbicidal rating CYPSE (CYPSE (Flatsedge) [5]; 0.0313 kg/ha) | GALAP herbicidal rating (GALAP (Galium); rate 0.0313 kg/ha) | CASOB herbicidal rating (CASOB (Sicklepod); rate 0.0157 kg/ha)
4.5: ORYSAT herbicidal rating (ORYSAT (Rice, Tebonnet) [3]; rate 0.0157 kg/ha) | ORYSAT herbicidal rating (ORYSAT (Rice, Tebonnet) [3]; rate 0.0625 kg/ha)
6.5: ORYSAT herbicidal rating (ORYSAT (Rice, Tebonnet) [3]; rate 0.1250 kg/ha) | GLXMAW preemergence herbicidal rating ([6]; rate 0.0313 kg/ha)
8.5: ORYSAT preemergence herbicidal rating (ORYSAT (Rice, Tebonnet) [4]; rate 0.1250 kg/ha) | AMBEL preemergence herbicidal rating (AMBEL (Ragweed, Common); rate 0.0313 kg/ha) | GLXMAW preemergence herbicidal rating ([6]; rate 0.2500 kg/ha) | Herbicidal rating CYPIR (CYPIR (Rice Flatsedge); rate 0.0313 kg/ha) | Herbicidal rating SAGPY ([7]; rate 0.2500 kg/ha)
